Where two headings read alike, the source gives them in different places.
Key:
Format in all cases: cell-based
[1] = system: HL-60 cells; assay: Apoptosis by FITC-Annexin V and PI double-staining, flow cytometry; conditions: 1.8 µM, 24 h
Protocol: Pro-apoptotic activity of 5a was also confirmed using FITC-Annexin V and PI double-staining, based on the loss of plasma membrane asymmetry (phosphatidylserine externalization), which is a marker of the earlier stages of apoptosis.
Apoptotic cell death was determined using FITC-Annexin V Apoptosis Detection Kit I (BD Bioscience, San Jose, CA, USA). Briefly, HL-60 cells were seeded in the 6-well plates (4.0 × 10^5 cells/well) in 2 mL of the culture medium and treated with […] for 24 h. Afterwards, the cells were collected by centrifugation (300× g, 5 min), washed with PBS, re-suspended in binding buffer and stained with FITC-conjugated annexin V and propidium iodide (PI) according to the manufacturer guidelines (15 min, at room temperature). The samples were analyzed by flow cytometry using CytoFLEX (Beckman Coulter, Inc., Brea, CA, USA). Data analysis was performed using Kaluza Analysis Software v2 (Beckman Coulter, Inc., Brea, CA, USA).

[2] = system: ABCB1 gene expression; assay: Real-time PCR of ABCB1 mRNA level in HL-60 cells; conditions: higher concentration (1.8 µM; 0.9 and 1.8 µM tested), 24 h
Text: Overexpression of ATP-binding cassette (ABC) transporters causing multidrug resistance (MDR) in cancer cells is one of the major problems associated with poor therapeutic outcome of anticancer drugs. ABC transporters reduce the cellular uptake of drugs into cancer cells, defending them from medical interventions. In leukemia cells ABCB1 (P-glycoprotein), overexpression has been observed. […] It seemed interesting to determine if 3-methylidenequinolin-4-one 5a would also down-regulate ABCB1 mRNA levels in leukemia HL-60 cells. Here, we tested the ABCB1 gene expression of 5a at two concentrations, 0.9 and 1.8 µM. Compound 5a decreased the ABCB1 mRNA level at a higher concentration (Figure 6).
The mRNA level of the ABCB1 gene was assessed using quantitative real-time PCR. Briefly, HL-60 cells were seeded in 6-well plates (4.0 × 10^5 cells/mL) in 2 mL of growth medium and treated with 5a for 24 h. Total RNA was extracted using the Total RNA Mini Kit (A&A Biotechnology, Gdynia, Poland) according to the manufacturer’s protocol. The concentration of RNA used for further experiments was 500 ng. cDNA was synthesized using Transcriba Kit (A&A Biotechnology, Gdynia, Poland). […] The expression level of ABCB1 gene was determined by the 2^−∆∆CT method.

[3] = system: HL-60 cells; assay: MTT in vitro cytotoxicity assay, HL-60; conditions: Homo sapiens
Protocol: The promyelocytic leukemia HL-60 and breast cancer adenocarcinoma MCF-7 cell lines were purchased from the European Collection of Cell Cultures (ECACC). Leukemia cells were cultured in RPMI 1640 plus GlutaMax I medium (Gibco/Life Technologies, Carlsbad, CA, USA). MCF-7 cells were maintained in Minimum Essential Medium Eagle (Sigma Aldrich, St. Louis, MO, USA) and supplemented with 2 mM glutamine and men non-essential amino acid solution (Sigma Aldrich, St. Louis, MO, USA). Both media were supplemented with 10% heat-inactivated fetal bovine serum (Biological Industries, Beit-Haemek, Israel) and antibiotics (100 U/mL penicillin and 100 μg/mL streptomycin) (Sigma-Aldrich, St. Louis, MO, USA). Human umbilical vein endothelial cells (HUVECs) were purchased from the American Type Culture Collection (ATCC). Cells were cultured using EGM-2 Endothelial Medium BulletKit purchased from Lonza (Lonza, Walkersville, MD, USA). Cells were maintained at 37 °C in 5% CO2 atmosphere and grown until 80% confluent.
The tested compounds were dissolved in sterile dimethyl sulfoxide (DMSO) and further diluted with culture medium. The final concentration of DMSO in cell cultures was less than 0.1% v/v. Controls without and with 0.1% DMSO were performed in each experiment. At the used concentration, DMSO had no effect on the observed parameters.
The MTT (3-(4,5-dimethylthiazol-2-yl)-2,5-diphenyltetrazolium bromide) assay, which measures the activity of cellular dehydrogenases, was performed according to the Mosmann method. Exponentially growing cells were seeded into 24-well plates at a density of 8 × 10^4 cells/mL and left to grow for 24 h. After 24 h or 48 h of incubation with various concentrations of the tested compounds (dissolved in DMSO and diluted with complete culture medium), cells were incubated with 0.1 mL of MTT solution (5 mg/mL in phosphate buffered saline) for 1.5 h. The metabolically active cells reduced MTT to blue formazan crystals. The plates were centrifuged, and the supernatant was discarded. DMSO (1 mL) was added to each well to dissolve the crystals, whose absorbance was measured at 560 nm using FlexStation 3 Multi-Mode Microplate Reader (Molecular Devices, LLC, San Jose, CA, USA). The untreated cells were used as control. The IC50 values were calculated from the concentration–response curves. The data were expressed as mean ± SEM of three independent experiments.

In the case of `C=C1C(=O)c2ccccc2N(S(=O)(=O)c2ccccc2)C1CC` (centres unmarked) [Compound 5a, 2-Ethyl-3-methylidene-1-(phenylsulfonyl)-2,3-dihydroquinolin-4(1H)-one], the “early apoptotic cell fraction (Annexin V-positive)” value [1] is reported as “up to 13.9%”, the “late apoptotic cell fraction (Annexin V- and PI-positive)” value [1] is reported as no more than 13.7% and the “ABCB1 mRNA level” value [2] is reported as “decreased”. It also gave an IC50 ([3]; HL-60, 24 h, 24 h incubation, read-out: IC50 HL-60 after 24 h incubation) of 910 ± 30 nM and an IC50 ([3]; HL-60, 48 h, 48 h incubation, mean ± SEM, read-out: IC50 HL-60) of 340 ± 30 nM.

From article PMC9181899, “Synthesis and Anticancer Properties of New 3-Methylidene-1-sulfonyl-2,3-dihydroquinolin-4(1H)-ones” (Molecules, 2022)
